Laboratory results: the NIST ThermoML archive (doi:10.1016/j.jct.2012.07.022)

Test: wn = mass fraction of the nth substance listed
Conditions: 101 kPa, Liquid; for electrical conductivity: Alternating current cell with electrodes; for viscosity: Capillary tube (Ostwald / Ubbelohde) method; for mass density: Vibrating tube method

O=c1cc[nH]c(=O)[nH]1 [2,4(1H,3H)-pyrimidinedione] + CC(=O)[O-].CCn1cc[n+](C)c1
Conditions | electrical conductivity [S/m] | mass density [kg/m3] | viscosity [mPa·s]
298.15 K, w2 = 0 | 0.296 | 1097.6 | 128.5
298.15 K, w2 = 0.0486 | 0.221 | 1111 | 190.6
298.15 K, w2 = 0.1019 | 0.159 | 1125 | 294
298.15 K, w2 = 0.1471 | 0.11 | 1135.7 | 437.6
298.15 K, w2 = 0.2029 | 0.0807 | 1148.6 | 682.8
298.15 K, w2 = 0.2505 | 0.0585 | 1157.9 | 1010
298.15 K, w2 = 0.298 | 0.0388 | 1166.8 | 1589
303.15 K, w2 = 0 | 0.382 | 1094.5 | 95.23
303.15 K, w2 = 0.0486 | 0.293 | 1107.9 | 136.6
303.15 K, w2 = 0.1019 | 0.214 | 1122 | 204
303.15 K, w2 = 0.1471 | 0.156 | 1132.5 | 293.1
303.15 K, w2 = 0.2029 | 0.117 | 1145.2 | 441.4
303.15 K, w2 = 0.2505 | 0.0878 | 1154.6 | 630.8
303.15 K, w2 = 0.298 | 0.0602 | 1163.7 | 952.6
308.15 K, w2 = 0 | 0.48 | 1091.4 | 72.42
308.15 K, w2 = 0.0486 | 0.38 | 1104.9 | 100.9
308.15 K, w2 = 0.1019 | 0.288 | 1118.9 | 146.4
308.15 K, w2 = 0.1471 | 0.212 | 1129.3 | 204.2
308.15 K, w2 = 0.2029 | 0.163 | 1141.9 | 297.8
308.15 K, w2 = 0.2505 | 0.125 | 1151.2 | 413.1
308.15 K, w2 = 0.298 | 0.0892 | 1160.5 | 602.2
313.15 K, w2 = 0 | 0.594 | 1088.4 | 56.38
313.15 K, w2 = 0.0486 | 0.48 | 1101.8 | 76.6
313.15 K, w2 = 0.1019 | 0.372 | 1115.8 | 108.2
313.15 K, w2 = 0.1471 | 0.281 | 1126.2 | 147.1
313.15 K, w2 = 0.2029 | 0.221 | 1138.8 | 208.6
313.15 K, w2 = 0.2505 | 0.173 | 1148 | 281.8
313.15 K, w2 = 0.298 | 0.127 | 1157.1 | 398.2
318.15 K, w2 = 0 | 0.827 | 1085.3 | 44.79
318.15 K, w2 = 0.0486 | 0.592 | 1098.8 | 59.5
318.15 K, w2 = 0.1019 | 0.469 | 1112.8 | 82.2
318.15 K, w2 = 0.1471 | 0.362 | 1123.2 | 109.1
318.15 K, w2 = 0.2029 | 0.29 | 1135.7 | 150.9
318.15 K, w2 = 0.2505 | 0.233 | 1144.8 | 199.2
318.15 K, w2 = 0.298 | 0.176 | 1153.9 | 273.8
323.15 K, w2 = 0 | 0.986 | 1082.3 | 36.23
323.15 K, w2 = 0.0486 | 0.718 | 1095.8 | 47.16
323.15 K, w2 = 0.1019 | 0.579 | 1109.9 | 63.79
323.15 K, w2 = 0.1471 | 0.456 | 1120.2 | 82.98
323.15 K, w2 = 0.2029 | 0.371 | 1132.7 | 112.2
323.15 K, w2 = 0.2505 | 0.304 | 1141.7 | 145.2
323.15 K, w2 = 0.298 | 0.233 | 1150.8 | 194.8
328.15 K, w2 = 0 | – | 1079.3 | 29.78
328.15 K, w2 = 0.0486 | – | 1092.9 | 38.06
328.15 K, w2 = 0.1019 | – | 1106.9 | 50.53
328.15 K, w2 = 0.1471 | – | 1117.1 | 64.55
328.15 K, w2 = 0.2029 | – | 1129.6 | 85.56
328.15 K, w2 = 0.2505 | – | 1138.7 | 108.7
328.15 K, w2 = 0.298 | – | 1147.8 | 142.7
333.15 K, w2 = 0 | – | 1076.2 | 24.82
333.15 K, w2 = 0.0486 | – | 1089.9 | 31.2
333.15 K, w2 = 0.1019 | – | 1103.9 | 40.73
333.15 K, w2 = 0.1471 | – | 1114.1 | 51.22
333.15 K, w2 = 0.2029 | – | 1126.6 | 66.66
333.15 K, w2 = 0.2505 | – | 1135.7 | 83.31
333.15 K, w2 = 0.298 | – | 1144.7 | 107.3
338.15 K, w2 = 0 | – | 1073.3 | 20.95
338.15 K, w2 = 0.0486 | – | 1086.9 | 25.94
338.15 K, w2 = 0.1019 | – | 1100.9 | 33.34
338.15 K, w2 = 0.1471 | – | 1111.1 | 41.34
338.15 K, w2 = 0.2029 | – | 1123.6 | 52.92
338.15 K, w2 = 0.2505 | – | 1132.7 | 65.2
338.15 K, w2 = 0.298 | – | 1141.7 | 82.59
343.15 K, w2 = 0 | – | 1070.3 | 17.88
343.15 K, w2 = 0.0486 | – | 1083.9 | 21.84
343.15 K, w2 = 0.1019 | – | 1097.9 | 27.67
343.15 K, w2 = 0.1471 | – | 1108.1 | 33.87
343.15 K, w2 = 0.2029 | – | 1120.5 | 42.75
343.15 K, w2 = 0.2505 | – | 1129.6 | 51.97
343.15 K, w2 = 0.298 | – | 1138.7 | 64.84
